Article PMC6437697 (Journal of Medicinal Chemistry, 2019)

Legend:
Assay in all cases: KINOMEscan
Assay type in all cases: binding
Conditions in all cases: read-out: % control activity remaining
RIOK1 = molecular target: T1, RIOK1 (Homo sapiens, UniProt Q9BRS2)
T1 construct: purchased Eurofins DiscoverX KINOMEscan
T1 sequence (Q9BRS2 1-568): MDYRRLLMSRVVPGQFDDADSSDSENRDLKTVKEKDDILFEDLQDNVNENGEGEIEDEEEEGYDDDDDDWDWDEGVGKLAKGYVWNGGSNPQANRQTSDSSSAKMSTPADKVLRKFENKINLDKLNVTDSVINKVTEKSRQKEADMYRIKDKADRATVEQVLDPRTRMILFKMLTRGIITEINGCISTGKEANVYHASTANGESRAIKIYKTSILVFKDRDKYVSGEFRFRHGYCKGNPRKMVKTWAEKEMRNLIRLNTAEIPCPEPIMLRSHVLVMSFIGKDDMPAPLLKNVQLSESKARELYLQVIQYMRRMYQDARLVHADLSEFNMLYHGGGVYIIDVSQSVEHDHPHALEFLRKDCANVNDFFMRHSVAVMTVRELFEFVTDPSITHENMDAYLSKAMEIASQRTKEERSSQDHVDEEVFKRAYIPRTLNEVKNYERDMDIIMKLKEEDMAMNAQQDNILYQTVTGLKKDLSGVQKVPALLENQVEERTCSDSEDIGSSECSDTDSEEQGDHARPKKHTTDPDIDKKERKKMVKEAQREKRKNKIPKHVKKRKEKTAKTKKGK

ADCK4 = molecular target: T2, ADCK4 (Homo sapiens, UniProt Q96D53)
T2 construct: purchased Eurofins DiscoverX KINOMEscan
T2 sequence (Q96D53 1-544): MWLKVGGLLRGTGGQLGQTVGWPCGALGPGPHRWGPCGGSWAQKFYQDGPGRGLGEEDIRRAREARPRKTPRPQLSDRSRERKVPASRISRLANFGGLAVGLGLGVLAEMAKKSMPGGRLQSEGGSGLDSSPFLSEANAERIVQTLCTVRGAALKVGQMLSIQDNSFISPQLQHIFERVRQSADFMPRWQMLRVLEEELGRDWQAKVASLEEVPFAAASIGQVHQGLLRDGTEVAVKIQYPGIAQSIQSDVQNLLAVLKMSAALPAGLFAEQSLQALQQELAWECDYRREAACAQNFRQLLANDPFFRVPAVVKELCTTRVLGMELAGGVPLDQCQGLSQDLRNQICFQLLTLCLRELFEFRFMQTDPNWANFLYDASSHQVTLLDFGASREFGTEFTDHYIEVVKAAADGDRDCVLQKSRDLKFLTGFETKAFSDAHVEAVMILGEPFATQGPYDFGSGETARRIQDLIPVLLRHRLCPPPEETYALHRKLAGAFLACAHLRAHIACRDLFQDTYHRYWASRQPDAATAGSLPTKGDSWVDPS

MET(Y1235D) = molecular target: T3, MET(Y1235D) (Homo sapiens, UniProt P08581, Y1235D)
T3 construct: purchased Eurofins DiscoverX KINOMEscan

JNK2 = molecular target: T4, JNK2 (Homo sapiens, UniProt P45984)
T4 construct: purchased Eurofins DiscoverX KINOMEscan

JNK1 = molecular target: T5, JNK1 (Homo sapiens, UniProt P45983)
T5 construct: purchased Eurofins DiscoverX KINOMEscan

PRKG1 = molecular target: T6, PRKG1 (Homo sapiens, UniProt Q13976)
T6 construct: purchased Eurofins DiscoverX KINOMEscan
T6 sequence (Q13976 1-671): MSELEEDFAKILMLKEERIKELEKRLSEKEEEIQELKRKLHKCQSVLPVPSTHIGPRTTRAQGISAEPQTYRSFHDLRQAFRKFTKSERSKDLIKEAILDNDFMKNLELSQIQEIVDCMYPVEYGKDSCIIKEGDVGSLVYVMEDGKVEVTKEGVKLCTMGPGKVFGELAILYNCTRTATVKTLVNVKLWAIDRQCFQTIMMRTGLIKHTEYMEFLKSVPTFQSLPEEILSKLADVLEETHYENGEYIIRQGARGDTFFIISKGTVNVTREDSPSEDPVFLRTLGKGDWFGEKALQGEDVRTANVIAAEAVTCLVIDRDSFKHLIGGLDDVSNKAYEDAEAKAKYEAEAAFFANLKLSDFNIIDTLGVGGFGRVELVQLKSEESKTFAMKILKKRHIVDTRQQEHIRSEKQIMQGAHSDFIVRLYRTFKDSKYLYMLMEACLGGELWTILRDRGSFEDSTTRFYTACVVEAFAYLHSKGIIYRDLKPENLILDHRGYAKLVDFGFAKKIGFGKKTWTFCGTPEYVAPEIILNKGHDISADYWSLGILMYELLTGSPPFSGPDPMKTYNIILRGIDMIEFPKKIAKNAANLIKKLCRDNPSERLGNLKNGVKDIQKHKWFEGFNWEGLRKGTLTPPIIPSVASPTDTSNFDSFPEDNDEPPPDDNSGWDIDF

[1] = molecular target: T7, RSK2(Kin.Dom.2-C-terminal) (Homo sapiens, UniProt P51812)
T7 construct: RSK2(Kin.Dom.2-C-terminal); purchased Eurofins DiscoverX KINOMEscan

TRKB = molecular target: T8, TRKB (Homo sapiens, UniProt Q16620)
T8 construct: purchased Eurofins DiscoverX KINOMEscan

BTK = molecular target: T9, BTK (Homo sapiens, UniProt Q06187)
T9 construct: purchased Eurofins DiscoverX KINOMEscan

ERK5 = molecular target: T10, ERK5 (Homo sapiens, UniProt Q13164)
T10 construct: purchased Eurofins DiscoverX KINOMEscan

WNK3 = molecular target: T11, WNK3 (Homo sapiens, UniProt Q9BYP7)
T11 construct: purchased Eurofins DiscoverX KINOMEscan

T4 sequence (P45984 whole entry): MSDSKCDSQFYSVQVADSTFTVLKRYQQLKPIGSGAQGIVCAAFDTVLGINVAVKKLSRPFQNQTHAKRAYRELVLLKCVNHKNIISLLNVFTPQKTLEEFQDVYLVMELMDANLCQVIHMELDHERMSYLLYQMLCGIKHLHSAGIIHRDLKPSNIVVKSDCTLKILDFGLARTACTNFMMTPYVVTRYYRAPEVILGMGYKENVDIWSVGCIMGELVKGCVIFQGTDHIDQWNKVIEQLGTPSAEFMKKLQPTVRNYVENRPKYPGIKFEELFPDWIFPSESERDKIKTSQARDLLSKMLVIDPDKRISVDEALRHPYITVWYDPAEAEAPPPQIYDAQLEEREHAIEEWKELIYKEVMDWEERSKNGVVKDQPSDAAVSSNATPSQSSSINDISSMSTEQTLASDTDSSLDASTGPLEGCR
T7 sequence (P51812 422-679 limits assumed): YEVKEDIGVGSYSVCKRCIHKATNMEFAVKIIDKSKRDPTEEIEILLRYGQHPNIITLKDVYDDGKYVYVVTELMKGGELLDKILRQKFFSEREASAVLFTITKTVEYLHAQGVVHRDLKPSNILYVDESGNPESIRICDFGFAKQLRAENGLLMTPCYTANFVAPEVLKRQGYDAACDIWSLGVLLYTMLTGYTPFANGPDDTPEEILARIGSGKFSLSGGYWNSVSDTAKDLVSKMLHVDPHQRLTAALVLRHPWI
T8 sequence (Q16620 32-822): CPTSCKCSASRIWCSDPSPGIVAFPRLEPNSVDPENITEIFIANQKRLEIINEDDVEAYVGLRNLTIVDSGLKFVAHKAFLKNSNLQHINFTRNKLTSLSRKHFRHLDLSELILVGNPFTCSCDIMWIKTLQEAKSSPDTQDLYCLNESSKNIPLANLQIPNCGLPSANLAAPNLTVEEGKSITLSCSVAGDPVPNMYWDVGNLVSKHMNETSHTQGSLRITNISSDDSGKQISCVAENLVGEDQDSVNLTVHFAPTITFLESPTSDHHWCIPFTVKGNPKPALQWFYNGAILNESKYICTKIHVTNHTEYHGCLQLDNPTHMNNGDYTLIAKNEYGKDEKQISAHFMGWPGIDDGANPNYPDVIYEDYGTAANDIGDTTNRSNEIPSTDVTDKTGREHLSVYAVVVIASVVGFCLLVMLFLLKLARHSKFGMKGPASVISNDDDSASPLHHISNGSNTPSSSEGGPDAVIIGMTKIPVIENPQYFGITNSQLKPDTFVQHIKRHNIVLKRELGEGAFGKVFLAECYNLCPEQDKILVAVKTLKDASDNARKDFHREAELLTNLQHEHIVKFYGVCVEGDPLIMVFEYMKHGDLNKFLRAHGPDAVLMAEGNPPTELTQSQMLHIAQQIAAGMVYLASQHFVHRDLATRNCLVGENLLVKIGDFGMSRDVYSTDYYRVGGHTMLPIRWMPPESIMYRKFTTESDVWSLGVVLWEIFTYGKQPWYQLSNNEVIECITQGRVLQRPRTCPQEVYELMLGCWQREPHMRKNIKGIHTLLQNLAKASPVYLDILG
T9 sequence (Q06187 whole entry): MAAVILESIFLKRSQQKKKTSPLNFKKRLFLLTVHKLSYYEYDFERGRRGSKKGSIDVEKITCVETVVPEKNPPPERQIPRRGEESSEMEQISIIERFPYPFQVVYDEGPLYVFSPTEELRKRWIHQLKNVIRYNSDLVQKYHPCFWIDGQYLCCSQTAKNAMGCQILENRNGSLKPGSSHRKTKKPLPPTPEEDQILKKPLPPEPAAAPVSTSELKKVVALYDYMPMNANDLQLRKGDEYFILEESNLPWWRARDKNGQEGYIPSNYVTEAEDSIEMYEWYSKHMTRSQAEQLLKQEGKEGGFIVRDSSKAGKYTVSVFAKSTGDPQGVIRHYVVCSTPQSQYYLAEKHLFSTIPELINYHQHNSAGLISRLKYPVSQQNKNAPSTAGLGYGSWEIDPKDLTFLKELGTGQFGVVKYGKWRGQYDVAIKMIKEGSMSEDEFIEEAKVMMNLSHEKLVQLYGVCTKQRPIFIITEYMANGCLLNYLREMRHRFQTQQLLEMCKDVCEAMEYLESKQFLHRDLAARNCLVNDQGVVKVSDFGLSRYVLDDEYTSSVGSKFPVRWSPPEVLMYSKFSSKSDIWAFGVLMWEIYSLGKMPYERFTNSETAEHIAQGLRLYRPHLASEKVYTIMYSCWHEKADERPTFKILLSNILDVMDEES
T5 sequence (P45983 whole entry): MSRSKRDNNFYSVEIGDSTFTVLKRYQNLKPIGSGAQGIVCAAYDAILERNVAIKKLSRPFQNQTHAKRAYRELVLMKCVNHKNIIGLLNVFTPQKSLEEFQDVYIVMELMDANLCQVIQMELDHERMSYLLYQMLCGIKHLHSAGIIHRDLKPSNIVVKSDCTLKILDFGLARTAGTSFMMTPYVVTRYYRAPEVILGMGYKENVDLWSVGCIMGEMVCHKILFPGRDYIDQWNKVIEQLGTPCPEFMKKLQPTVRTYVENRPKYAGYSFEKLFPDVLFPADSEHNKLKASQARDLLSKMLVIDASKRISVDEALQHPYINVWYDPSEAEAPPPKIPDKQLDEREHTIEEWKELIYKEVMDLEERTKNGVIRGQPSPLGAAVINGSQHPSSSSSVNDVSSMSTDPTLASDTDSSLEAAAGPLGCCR
T3 sequence (P08581 25-1390 Y1235D): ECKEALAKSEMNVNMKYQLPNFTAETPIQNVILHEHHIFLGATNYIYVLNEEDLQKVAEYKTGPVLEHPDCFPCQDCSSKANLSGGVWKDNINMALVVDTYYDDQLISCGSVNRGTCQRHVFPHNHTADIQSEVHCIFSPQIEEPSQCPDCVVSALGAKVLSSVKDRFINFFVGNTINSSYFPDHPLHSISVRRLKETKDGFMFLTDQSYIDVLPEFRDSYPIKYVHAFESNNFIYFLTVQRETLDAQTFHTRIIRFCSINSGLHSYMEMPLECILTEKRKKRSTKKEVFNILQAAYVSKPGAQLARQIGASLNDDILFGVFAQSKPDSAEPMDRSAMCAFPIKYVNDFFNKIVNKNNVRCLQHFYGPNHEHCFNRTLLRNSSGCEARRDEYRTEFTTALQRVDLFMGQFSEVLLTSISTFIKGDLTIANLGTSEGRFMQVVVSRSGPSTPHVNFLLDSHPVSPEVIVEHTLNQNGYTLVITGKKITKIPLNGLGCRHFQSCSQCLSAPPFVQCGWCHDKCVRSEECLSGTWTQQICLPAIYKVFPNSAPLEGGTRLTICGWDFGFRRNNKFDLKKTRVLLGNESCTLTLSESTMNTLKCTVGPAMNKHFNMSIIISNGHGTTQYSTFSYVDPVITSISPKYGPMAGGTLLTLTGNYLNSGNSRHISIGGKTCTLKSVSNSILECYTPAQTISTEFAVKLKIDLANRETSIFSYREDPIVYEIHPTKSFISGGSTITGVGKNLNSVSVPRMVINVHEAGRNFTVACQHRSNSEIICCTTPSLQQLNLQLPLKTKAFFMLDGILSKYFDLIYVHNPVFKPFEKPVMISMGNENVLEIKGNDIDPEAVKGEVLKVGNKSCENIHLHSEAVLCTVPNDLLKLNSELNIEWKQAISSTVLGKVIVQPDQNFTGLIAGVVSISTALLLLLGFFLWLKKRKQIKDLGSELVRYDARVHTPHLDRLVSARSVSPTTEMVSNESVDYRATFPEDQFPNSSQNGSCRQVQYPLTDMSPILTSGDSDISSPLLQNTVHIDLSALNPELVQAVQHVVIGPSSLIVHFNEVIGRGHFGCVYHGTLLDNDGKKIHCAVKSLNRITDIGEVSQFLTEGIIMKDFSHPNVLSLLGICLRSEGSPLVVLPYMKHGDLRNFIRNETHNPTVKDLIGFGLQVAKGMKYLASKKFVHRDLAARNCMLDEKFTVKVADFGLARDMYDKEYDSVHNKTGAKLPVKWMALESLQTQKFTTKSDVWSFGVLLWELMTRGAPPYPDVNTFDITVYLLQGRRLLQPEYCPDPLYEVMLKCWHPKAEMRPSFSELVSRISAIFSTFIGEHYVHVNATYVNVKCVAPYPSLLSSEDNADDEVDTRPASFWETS
T10 sequence (Q13164 whole entry): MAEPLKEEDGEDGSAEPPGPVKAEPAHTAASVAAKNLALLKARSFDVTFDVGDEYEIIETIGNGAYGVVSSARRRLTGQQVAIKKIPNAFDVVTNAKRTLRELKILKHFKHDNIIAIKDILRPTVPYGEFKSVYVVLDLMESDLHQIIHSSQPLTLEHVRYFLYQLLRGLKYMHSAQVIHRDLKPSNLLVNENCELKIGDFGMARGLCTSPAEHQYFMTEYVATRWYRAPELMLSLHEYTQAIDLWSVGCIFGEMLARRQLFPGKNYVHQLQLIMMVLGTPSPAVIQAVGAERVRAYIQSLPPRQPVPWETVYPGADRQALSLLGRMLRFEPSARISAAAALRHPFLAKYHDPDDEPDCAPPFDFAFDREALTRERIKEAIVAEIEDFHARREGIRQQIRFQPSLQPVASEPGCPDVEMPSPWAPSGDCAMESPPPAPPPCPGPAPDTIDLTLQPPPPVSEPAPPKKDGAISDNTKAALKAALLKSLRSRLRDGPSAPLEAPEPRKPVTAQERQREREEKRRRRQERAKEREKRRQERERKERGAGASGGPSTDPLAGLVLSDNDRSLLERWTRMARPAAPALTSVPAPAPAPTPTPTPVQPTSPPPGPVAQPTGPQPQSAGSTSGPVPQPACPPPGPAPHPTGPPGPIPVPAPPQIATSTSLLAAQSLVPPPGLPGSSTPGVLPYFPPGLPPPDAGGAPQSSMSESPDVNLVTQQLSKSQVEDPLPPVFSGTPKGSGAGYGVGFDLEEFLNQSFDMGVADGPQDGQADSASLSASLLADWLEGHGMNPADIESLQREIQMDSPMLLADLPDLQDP

SMILES | remaining binding at 1 µM (RIOK1) | remaining binding at 1 µM (ADCK4) | remaining binding at 1 µM (MET(Y1235D)) | remaining binding at 1 µM (JNK2) | remaining binding at 1 µM (JNK1) | remaining binding at 1 µM (PRKG1) | remaining binding at 1 µM [1] | remaining binding at 1 µM (TRKB) | remaining binding at 1 µM (BTK) | remaining binding at 1 µM (ERK5) | remaining binding at 1 µM (WNK3)
Clc1cc(NCC2CC2)c2ncc(-c3ccc4[nH]ncc4c3)n2n1 [compound 2, 6-Chloro-N-(cyclopropylmethyl)-3-(1H-indazol-5-yl)imidazo[1,2-b]pyridazin-8-amine] | 35% | 93% | 100% | 91% | 91% | 84% | 89% | 89% | 98% | 100% | 96%
O=C(CN1CCOCC1)N[C@H]1CC[C@H](Nc2cc(Cl)nn3c(-c4ccc5[nH]ncc5c4)cnc23)CC1 [compound 26] | 33% | 84% | 97% | 80% | 83% | 32% | 100% | 69% | 100% | 98% | 100%
CN1CCC(CNc2cc(Cl)nn3c(-c4cc5nc(Nc6ccccc6)[nH]c5cc4F)cnc23)CC1 [compound 31, 6-Chloro-3-(6-fluoro-2-(phenylamino)-1H-benzo[d]imidazol-5-yl)-N-((1-methylpiperidin-4-yl)methyl)imidazo[1,2-b]pyridazin-8-amine] | 88% | 77% | 99% | 75% | 67% | 83% | 73% | 91% | 70% | 87% | 82%
